{"source": "patent US20250230193A1", "about": "“CYCLIC COMPOUND HAVING SELECTIVE KRAS INHIBITORY EFFECT ON HRAS AND NRAS” (CHUGAI SEIYAKU KABUSHIKI KAISHA, priority 2022, published 2025)", "key": {"[1]": {"molecular_target": "GDP-bound NRAS wild-type protein (Homo sapiens, UniProt P01111)", "sequence (P01111 whole entry)": "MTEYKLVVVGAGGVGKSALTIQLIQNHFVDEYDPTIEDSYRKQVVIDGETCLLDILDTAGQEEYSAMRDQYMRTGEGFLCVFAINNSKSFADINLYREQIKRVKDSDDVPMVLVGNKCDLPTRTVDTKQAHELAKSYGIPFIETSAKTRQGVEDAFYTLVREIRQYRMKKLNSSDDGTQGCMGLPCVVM", "assay": "Binding to NRAS by surface plasmon resonance (SPR), Single Cycle Kinetics", "settings": "SPR; for NRAS/KRAS (ratio of KD value for NRAS to KD value for KRAS) / NRAS/KRAS (ratio of KD value with respect to NRAS to KD value with respect to KRAS): GDP-bound NRAS wild-type vs GDP-bound KRAS wild-type"}, "[2]": {"molecular_target": "GDP-bound HRAS wild-type protein (Homo sapiens, UniProt P01112)", "sequence (P01112 whole entry)": "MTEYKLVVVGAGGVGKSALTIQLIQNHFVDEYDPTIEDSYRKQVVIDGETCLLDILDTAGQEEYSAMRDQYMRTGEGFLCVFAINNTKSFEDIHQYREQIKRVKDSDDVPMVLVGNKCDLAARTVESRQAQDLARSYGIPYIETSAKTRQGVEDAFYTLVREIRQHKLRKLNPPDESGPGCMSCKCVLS", "assay": "Binding to HRAS by surface plasmon resonance (SPR), Single Cycle Kinetics", "settings": "SPR; for HRAS/KRAS (ratio of KD value for HRAS to KD value for KRAS) / HRAS/KRAS (ratio of KD value with respect to HRAS to KD value with respect to KRAS): GDP-bound HRAS wild-type vs GDP-bound KRAS wild-type"}}, "note": "Where a SMILES comes first, the peptide text is derived from it. Bridges are numbered along the chain shown (N, C = ends). [ ]: non-standard residue; d: D form. The star is where a group is joined. hPhe(3-Cl-4-CF3) = N[C@@H](CCc1ccc(C(F)(F)F)c(Cl)c1)C(=O)O; NPrPhe(4-CF3) = CCCN[C@@H](Cc1ccc(C(F)(F)F)cc1)C(=O)O; NMeGly(cPent) = CN[C@H](C(=O)O)C1CCCC1; Pro(4,4-F2) = O=C(O)[C@@H]1CC(F)(F)CN1; NMeD = CN[C@@H](CC(=O)O)C(=O)O; NMeL = CN[C@@H](CC(C)C)C(=O)O; Morpholide = C1CN(*)CCO1; Ac4c = NC1(C(=O)O)CCC1; Sar = CNCC(=O)O", "data": [{"smiles": "CCCN1C(=O)CN(C)C(=O)CN(C)C(=O)[C@H]([C@@H](C)CC)NC(=O)[C@H](CC(C)C)N(C)C(=O)C[C@@H](C(=O)N2CCOCC2)N(C)C(=O)[C@H](C2CCCC2)N(C)C(=O)C2(CCC2)NC(=O)[C@@H]2CC(F)(F)CN2C(=O)[C@H](CCc2ccc(C(F)(F)F)c(Cl)c2)NC(=O)CN(C)C(=O)[C@@H]1Cc1ccc(C(F)(F)F)cc1", "note": "[PP0207] ([NMeL]I[Sar][Sar][NPrPhe(4-CF3)][Sar][hPhe(3-Cl-4-CF3)][Pro(4,4-F2)][Ac4c][NMeGly(cPent)][NMeD]-Morpholide; lactam N-11)", "values": [{"measurement": "NRAS/KRAS (ratio of KD for GDP-bound NRAS wild-type to KD for KRAS)", "setting": "[1]; KD ratio NRAS/KRAS", "value": "B (a compound having 3 or more and less than 10 is denoted as B)"}, {"measurement": "HRAS/KRAS (ratio of KD for GDP-bound HRAS wild-type to KD for KRAS)", "setting": "[2]; KD ratio HRAS/KRAS", "value": "C (A compound having a KD ratio of 0.1 or more and less than 3 is denoted as C)"}]}, {"smiles": "CCO[C@@H]1C[C@H]2C(=O)NC3(CCC3)C(=O)N(C)[C@@H](C3CCCC3)C(=O)N(C)[C@H](C(=O)N(C)C)CC(=O)N(CC)[C@@H](CC(C)C)C(=O)N[C@@H]([C@@H](C)CC)C(=O)N(C)CC(=O)N(C)[C@H]3C/C=C\\CCN(C3=O)[C@@H](Cc3ccc(C(F)(F)F)cc3)C(=O)N(C)CC(=O)N[C@@H](CCc3cc(F)c(C(F)(F)F)c(F)c3)C(=O)N2C1", "note": "[PP1765]", "values": [{"measurement": "NRAS/KRAS (ratio of KD value for NRAS to KD value for KRAS)", "setting": "[1]; KD ratio", "value": "A (a compound having 10 or more and less than 20 is denoted as A)"}, {"measurement": "HRAS/KRAS (ratio of KD value for HRAS to KD value for KRAS)", "setting": "[2]; KD ratio", "value": "A (a compound having 10 or more and less than 20 is denoted as A)"}]}, {"smiles": "C#CC[C@H]1C(=O)N[C@@H]([C@@H](C)CC)C(=O)N(C)CC(=O)N(C)[C@H]2CCCCN(C2=O)[C@@H](Cc2ccc(C(F)(F)F)cc2)C(=O)N(C)CC(=O)N[C@@H](CCc2cc(F)c(C(F)(F)F)c(F)c2)C(=O)N2C[C@H](OCC)C[C@H]2C(=O)NC2(CCC2)C(=O)N(C)[C@@H](C2CCCC2)C(=O)N(C)[C@H](C(=O)N(C)C)CC(=O)N1C", "note": "[PP0696]", "values": [{"measurement": "NRAS/KRAS (ratio of KD value with respect to GDP-bound NRAS wild-type protein to KD value with respect to KRAS)", "setting": "[1]; KD ratio NRAS/KRAS", "value": "B (a compound having 3 or more and less than 10 is denoted as B)"}, {"measurement": "HRAS/KRAS (ratio of KD value with respect to GDP-bound HRAS wild-type protein to KD value with respect to KRAS)", "setting": "[2]; KD ratio HRAS/KRAS", "value": "B (a compound having 3 or more and less than 10 is denoted as B)"}]}, {"smiles": "CC[C@H](C)[C@@H]1NC(=O)[C@H](CC(C)C)N(C)C(=O)C[C@@H](C(=O)N2CCOCC2)N(C)C(=O)[C@H](C2CCCC2)N(C)C(=O)C2(CCC2)NC(=O)[C@@H]2[C@H](OC)CCN2C(=O)[C@H](CCc2cc(F)c(C(F)(F)F)c(F)c2)NC(=O)CN(C)C(=O)[C@H](Cc2ccc(C(F)(F)F)cc2)N2CCCC[C@@H](C2=O)N(C)C(=O)CN(C)C1=O", "note": "[PP1084]", "values": [{"measurement": "NRAS/KRAS (ratio of KD value with respect to NRAS to KD value with respect to KRAS)", "setting": "[1]; KD ratio", "value": "C (A compound having a KD ratio of 0.1 or more and less than 3 is denoted as C)"}, {"measurement": "HRAS/KRAS (ratio of KD value with respect to HRAS to KD value with respect to KRAS)", "setting": "[2]; KD ratio", "value": "B (a compound having 3 or more and less than 10 is denoted as B)"}]}, {"smiles": "CC[C@H](C)[C@@H]1NC(=O)[C@H](C2CCC2)N(C)C(=O)C[C@@H](C(=O)N(C)CC)N(C)C(=O)[C@H](C2CCCC2)N(C)C(=O)C2(CC(C)(C)C2)NC(=O)[C@@H]2C[C@H](C)CN2C(=O)[C@H](CCc2cc(F)c(C(F)(F)F)c(F)c2)NC(=O)CN(C)C(=O)[C@H](Cc2ccc(C(F)(F)F)cc2)N2CC/C=C\\C[C@@H](C2=O)N(C)C(=O)CN(C)C1=O", "note": "[PP1984]", "values": [{"measurement": "NRAS/KRAS (ratio of KD value for NRAS to KD value for KRAS)", "setting": "[1]; KD ratio", "value": "A (a compound having 10 or more and less than 20 is denoted as A)"}, {"measurement": "HRAS/KRAS (ratio of KD value for HRAS to KD value for KRAS)", "setting": "[2]; KD ratio", "value": "A (a compound having 10 or more and less than 20 is denoted as A)"}]}, {"smiles": "CCO[C@@H]1C[C@H]2C(=O)NC3(CC(C)(C)C3)C(=O)N(C)[C@@H](C3CCCC3)C(=O)N(C)[C@H](C(=O)N(C)C)CC(=O)N(C)[C@@H](CC(C)C)C(=O)N[C@@H]([C@@H](C)CC)C(=O)N(C)CC(=O)N(C)[C@H]3C/C=C\\CCN(C3=O)[C@@H](Cc3ccc(C(F)(F)F)cc3)C(=O)N(C)CC(=O)N[C@@H](CCc3ccc(C(F)(F)F)c(Cl)c3)C(=O)N2C1", "note": "[PP1751]", "values": [{"measurement": "NRAS/KRAS (ratio of KD value for NRAS to KD value for KRAS)", "setting": "[1]; KD ratio", "value": "A (a compound having 10 or more and less than 20 is denoted as A)"}, {"measurement": "HRAS/KRAS (ratio of KD value for HRAS to KD value for KRAS)", "setting": "[2]; KD ratio", "value": "A (a compound having 10 or more and less than 20 is denoted as A)"}]}, {"smiles": "CCOC[C@H]1C(=O)N[C@@H]([C@@H](C)CC)C(=O)N2CCC[C@H]2C(=O)N(C)[C@H]2C/C=C\\CCN(C2=O)[C@@H](Cc2ccc(C(F)(F)F)cc2)C(=O)N(C)CC(=O)N[C@@H](CCc2ccc(C(F)(F)F)c(OC)c2)C(=O)N2C[C@H](OCC)C[C@H]2C(=O)N(C)C2(CCC2)C(=O)N(C)[C@@H](C(CC)CC)C(=O)N(C)[C@H](C(=O)N(C)C)CC(=O)N1C", "note": "[PP2319]", "values": [{"measurement": "NRAS/KRAS (ratio of KD value with respect to NRAS to KD value with respect to KRAS)", "setting": "[1]", "value": "AA (a compound having 20 or more is denoted as AA)"}, {"measurement": "HRAS/KRAS (ratio of KD value with respect to HRAS to KD value with respect to KRAS)", "setting": "[2]", "value": "A (a compound having 10 or more and less than 20 is denoted as A)"}]}]}
